Measured values: patent US7897602B2, “Indolinone compounds as kinase inhibitors” (Development Center for Biotechnology, priority 2009, dated 2011)
Counter-ions that a name gives are not always drawn.

Assays:
Assay type in all cases: biochemical
VEGFR2 kinase = molecular target: T1, VEGFR2 kinase (Homo sapiens, UniProt P35968); assay: VEGFR2 kinase assay (33P incorporation into Poly(Glu-Tyr)); conditions: 500 nM test compound; read-out: Inhibition at 500 nM (%) VEGFr-2
T1 construct: recombinant N-terminal 6×His-tagged VEGFR2 kinase domain construct expressed by baculovirus; 6xHis (N); made in house
Outline: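 Recombinant baculovirus-expressed N-terminal His6-tagged VEGFR2 kinase domain (6.25 ng) phosphorylated poly(Glu-Tyr) 4:1 with 100 μM ATP plus [33P]-γ-ATP in MOPS pH 7.0, 30 °C, 30 min. Test compound was at 500 nM (4% DMSO). Filter-retained radioactivity relative to DMSO control gave % inhibition.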

c-Met kinase = molecular target: T2, c-Met kinase (Homo sapiens, UniProt P08581); assay: c-Met kinase assay (33P incorporation into Poly(Glu-Tyr)); conditions: 500 nM test compound
T2 construct: recombinant N-terminal 6×His-tagged c-Met kinase domain construct expressed from baculovirus; 6xHis (N); made in house
Outline: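 Recombinant N-terminal 6×His-tagged c-Met kinase domain (baculovirus-expressed, 5 ng) acted on Poly(Glu-Tyr) 4:1 with 100 μM ATP plus [33P]-γ-ATP in MOPS pH 7.0 buffer, 30 min at 30° C. Compound was at 500 nM. Filter-retained radioactivity was compared with the DMSO control to give percent inhibition.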

PDGFR-β kinase = molecular target: T3, PDGFR-β kinase (Homo sapiens, UniProt P09619); assay: PDGFR-β kinase assay (33P incorporation into Poly(Glu-Tyr)); conditions: 500 nM test compound
T3 construct: recombinant N-terminal 6×His-tagged PDGFR-β kinase domain construct expressed by baculovirus; 6xHis (N); made in house
Outline: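 His-tagged PDGFR-β kinase domain (55 ng) with Poly(Glu-Tyr) 4:1, 30 μM ATP plus [33P]-γ-ATP, pH 7.0 MnCl2 buffer, and 500 nM compound for 30 min at 30° C. Filter-bound radioactivity counted; inhibition computed relative to DMSO control.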

T1 sequence (P35968 834-1162 limits assumed): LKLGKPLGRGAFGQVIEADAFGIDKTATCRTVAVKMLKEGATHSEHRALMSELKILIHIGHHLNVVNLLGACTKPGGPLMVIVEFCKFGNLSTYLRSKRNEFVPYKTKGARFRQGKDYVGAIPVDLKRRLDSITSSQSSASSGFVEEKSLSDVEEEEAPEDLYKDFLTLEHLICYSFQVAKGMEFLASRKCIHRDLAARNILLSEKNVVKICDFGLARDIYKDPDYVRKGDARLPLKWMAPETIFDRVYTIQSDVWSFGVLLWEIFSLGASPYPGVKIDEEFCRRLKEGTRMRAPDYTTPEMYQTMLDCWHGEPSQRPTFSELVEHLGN
T3 sequence (P09619 600-962 limits assumed): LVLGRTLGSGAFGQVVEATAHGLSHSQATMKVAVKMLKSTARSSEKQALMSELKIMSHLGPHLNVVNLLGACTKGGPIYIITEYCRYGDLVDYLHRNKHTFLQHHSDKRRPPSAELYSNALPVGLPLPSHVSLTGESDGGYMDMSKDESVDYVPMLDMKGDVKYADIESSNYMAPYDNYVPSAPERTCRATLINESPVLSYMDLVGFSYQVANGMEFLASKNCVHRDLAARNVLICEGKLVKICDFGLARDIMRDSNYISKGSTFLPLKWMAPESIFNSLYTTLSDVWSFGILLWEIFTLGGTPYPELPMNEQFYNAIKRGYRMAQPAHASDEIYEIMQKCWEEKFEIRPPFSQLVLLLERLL
T2 sequence (P08581 1078-1345 limits assumed): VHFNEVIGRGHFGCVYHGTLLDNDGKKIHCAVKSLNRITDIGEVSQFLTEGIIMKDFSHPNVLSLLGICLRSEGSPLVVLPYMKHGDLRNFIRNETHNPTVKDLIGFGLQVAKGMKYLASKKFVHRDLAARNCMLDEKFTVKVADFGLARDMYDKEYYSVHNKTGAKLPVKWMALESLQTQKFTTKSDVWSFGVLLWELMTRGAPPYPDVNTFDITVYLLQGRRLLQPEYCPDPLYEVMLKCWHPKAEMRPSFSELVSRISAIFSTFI

Structure (SMILES): O=C(O)CCc1c(C=C2C(=S)Nc3ccccc32)[nH]c2c1C(=O)CCC2 [DCB-70084, 3-((3-carboxyethyl-4-oxo-4,5,6,7-tetrahydro-1H-indol-2-yl)methylene)indolin-2-thione]
- inhibition at 0.5 µM (VEGFR2 kinase): 13.4%
- inhibition at 0.5 µM (c-Met kinase): 11.5%
- inhibition at 0.5 µM (PDGFR-β kinase): 6%

Structure (SMILES): CCOC(=O)CCc1c(C=C2C(=S)Nc3cc(Br)ccc32)[nH]c2c1C(=O)CCC2 [DCB-70085, 6-bromo-3-((3-(3-ethoxy-3-oxopropyl)-4-oxo-4,5,6,7-tetrahydro-1H-indol-2-yl)methylene)indolin-2-thione]
- inhibition at 0.5 µM (VEGFR2 kinase): 25.4%
- inhibition at 0.5 µM (c-Met kinase): 25.1%
- inhibition at 0.5 µM (PDGFR-β kinase): 16.5%

Structure (SMILES): O=C(O)CCc1c(C=C2C(=S)Nc3cc(Br)ccc32)[nH]c2c1C(=O)CCC2 [DCB-70086, 6-bromo-3-((3-carboxyethyl-4-oxo-4,5,6,7-tetrahydro-1H-indol-2-yl)methylene)indolin-2-thione]
- inhibition at 0.5 µM (VEGFR2 kinase): 21.9%
- inhibition at 0.5 µM (c-Met kinase): 21.6%
- inhibition at 0.5 µM (PDGFR-β kinase): 12.8%

Structure (SMILES): O=C(O)CCc1c(/C=C2\C(=O)Nc3ccc(S(=O)(=O)N4CCCC4)cc32)[nH]c2c1C(=O)CCC2 [DCB-70087, (Z)-5-(pyrrolidin-1-ylsulfonyl)-3-((3-carboxyethyl-4-oxo-4,5,6,7-tetrahydro-1H-indol-2-yl)methylene)indolin-2-one]
- inhibition at 0.5 µM (VEGFR2 kinase): 26.3%
- inhibition at 0.5 µM (c-Met kinase): 20.9%
- inhibition at 0.5 µM (PDGFR-β kinase): 7.8%

Structure (SMILES): O=C(O)CCc1c(/C=C2\C(=O)Nc3ccc(S(=O)(=O)N4CCOCC4)cc32)[nH]c2c1C(=O)CCC2 [DCB-70088, (Z)-5-morpholinosulfonyl-3-((3-carboxyethyl-4-oxo-4,5,6,7-tetrahydro-1H-indol-2-yl)methylene)indolin-2-one]
- inhibition at 0.5 µM (VEGFR2 kinase): 17.2%
- inhibition at 0.5 µM (c-Met kinase): 25.3%
- inhibition at 0.5 µM (PDGFR-β kinase): 1%

Structure (SMILES): CCOC(=O)CCc1c(/C=C2\C(=O)Nc3ccc(NC(=O)Nc4ccc(C)cc4)cc32)[nH]c2c1C(=O)CCC2 [DCB-70091, (Z)-5-(3-p-tolylureido)-3-((3-(3-ethoxy-3-oxopropyl)-4-oxo-4,5,6,7-tetrahydro-1H-indol-2-yl)methylene)indolin-2-one]
- inhibition at 0.5 µM (VEGFR2 kinase): 24.6%
- inhibition at 0.5 µM (c-Met kinase): -0.5%
- inhibition at 0.5 µM (PDGFR-β kinase): 13%

Structure (SMILES): CCOC(=O)CCc1c(/C=C2\C(=O)Nc3ccc(NC(=O)Nc4ccc(OC)cc4)cc32)[nH]c2c1C(=O)CCC2 [DCB-70092, (Z)-5-(3-(4-methoxyphenyl)ureido)-3-((3-(3-ethoxy-3-oxopropyl)-4-oxo-4,5,6,7-tetrahydro-1H-indol-2-yl)methylene)indolin-2-one]
- inhibition at 0.5 µM (VEGFR2 kinase): 30.2%
- inhibition at 0.5 µM (c-Met kinase): 18.6%
- inhibition at 0.5 µM (PDGFR-β kinase): 14.1%

Structure (SMILES): Cc1ccc(NC(=O)Nc2ccc3c(c2)/C(=C/c2[nH]c4c(c2CCC(=O)O)C(=O)CCC4)C(=O)N3)cc1 [DCB-70093, (Z)-5-(3-p-tolylureido)-3-((3-carboxyethyl-4-oxo-4,5,6,7-tetrahydro-1H-indol-2-yl)methylene)indolin-2-one]
- inhibition at 0.5 µM (VEGFR2 kinase): 70.1%
- inhibition at 0.5 µM (c-Met kinase): 28.2%
- inhibition at 0.5 µM (PDGFR-β kinase): 40%

Structure (SMILES): COc1ccc(NC(=O)Nc2ccc3c(c2)/C(=C/c2[nH]c4c(c2CCC(=O)O)C(=O)CCC4)C(=O)N3)cc1 [DCB-70094, (Z)-5-(3-(4-methoxyphenyl)ureido)-3-((3-carboxyethyl-4-oxo-4,5,6,7-tetrahydro-1H-indol-2-yl)methylene)indolin-2-one]
- inhibition at 0.5 µM (VEGFR2 kinase): 79.8%
- inhibition at 0.5 µM (c-Met kinase): 18.9%
- inhibition at 0.5 µM (PDGFR-β kinase): 48.5%

Structure (SMILES): NS(=O)(=O)c1ccc2c(c1)/C(=C/c1[nH]c3c(c1CCC(=O)O)C(=O)CCC3)C(=O)N2 [DCB-70095, (Z)-5-sulfamoyl-3-((3-carboxyethyl-4-oxo-4,5,6,7-tetrahydro-1H-indol-2-yl)methylene)indolin-2-one]
- inhibition at 0.5 µM (VEGFR2 kinase): 64.4%
- inhibition at 0.5 µM (c-Met kinase): 16%
- inhibition at 0.5 µM (PDGFR-β kinase): 36.2%

Structure (SMILES): CCOC(=O)CCc1c(/C=C2\C(=O)Nc3ccc(NC(=O)c4ccccc4)cc32)[nH]c2c1C(=O)CCC2 [DCB-70096, (Z)-5-benazmido-3-((3-(3-ethoxy-3-oxopropyl)-4-oxo-4,5,6,7-tetrahydro-1H-indol-2-yl)methylene)indolin-2-one]
- inhibition at 0.5 µM (VEGFR2 kinase): 44.2%
- inhibition at 0.5 µM (c-Met kinase): 8.9%
- inhibition at 0.5 µM (PDGFR-β kinase): 14.9%

Structure (SMILES): O=C(O)CCc1c(/C=C2\C(=O)Nc3ccc(NC(=O)c4ccccc4)cc32)[nH]c2c1C(=O)CCC2 [DCB-70097, (Z)-5-benazmido-3-((3-carboxyethyl-4-oxo-4,5,6,7-tetrahydro-1H-indol-2-yl)methylene)indolin-2-one]
- inhibition at 0.5 µM (VEGFR2 kinase): 62.5%
- inhibition at 0.5 µM (c-Met kinase): 14.4%
- inhibition at 0.5 µM (PDGFR-β kinase): 21.5%

Structure (SMILES): CCOC(=O)CCc1c(/C=C2\C(=O)Nc3cc(-c4ccc(F)cc4)ccc32)[nH]c2c1C(=O)CCC2 [DCB-70098, (Z)-6-(4-fluorophenyl)-3-((3-(3-ethoxy-3-oxopropyl)-4-oxo-4,5,6,7-tetrahydro-1H-indol-2-yl)methylene)indolin-2-one]
- inhibition at 0.5 µM (VEGFR2 kinase): 20.4%
- inhibition at 0.5 µM (c-Met kinase): 27.2%
- inhibition at 0.5 µM (PDGFR-β kinase): 39.3%

Structure (SMILES): O=C(O)CCc1c(/C=C2\C(=O)Nc3cc(-c4ccc(F)cc4)ccc32)[nH]c2c1C(=O)CCC2 [DCB-70099, (Z)-6-(4-fluorophenyl)-3-((3-carboxyethyl-4-oxo-4,5,6,7-tetrahydro-1H-indol-2-yl)methylene)indolin-2-one]
- inhibition at 0.5 µM (VEGFR2 kinase): 79%
- inhibition at 0.5 µM (c-Met kinase): 22.7%
- inhibition at 0.5 µM (PDGFR-β kinase): 74.6%

Structure (SMILES): CCOC(=O)CCc1c(/C=C2\C(=O)Nc3cc(-c4cc(F)cc(F)c4)ccc32)[nH]c2c1C(=O)CCC2 [DCB-70100, (Z)-6-(3,5-difluorophenyl)-3-((3-(3-ethoxy-3-oxopropyl)-4-oxo-4,5,6,7-tetrahydro-1H-indol-2-yl)methylene)indolin-2-one]
- inhibition at 0.5 µM (VEGFR2 kinase): 17.7%
- inhibition at 0.5 µM (c-Met kinase): 13.1%
- inhibition at 0.5 µM (PDGFR-β kinase): 20.3%

Structure (SMILES): O=C(O)CCc1c(/C=C2\C(=O)Nc3cc(-c4cc(F)cc(F)c4)ccc32)[nH]c2c1C(=O)CCC2 [DCB-70101, (Z)-6-(3,5-difluorophenyl)-3-((3-carboxyethyl-4-oxo-4,5,6,7-tetrahydro-1H-indol-2-yl)methylene)indolin-2-one]
- inhibition at 0.5 µM (VEGFR2 kinase): 73.8%
- inhibition at 0.5 µM (c-Met kinase): 26.7%
- inhibition at 0.5 µM (PDGFR-β kinase): 70.5%

Structure (SMILES): CCOC(=O)CCc1c(/C=C2\C(=O)Nc3ccc(NS(=O)(=O)c4ccccc4)cc32)[nH]c2c1C(=O)CCC2 [DCB-70102, (Z)-5-phenylsulfonamido-3-((3-(3-ethoxy-3-oxopropyl)-4-oxo-4,5,6,7-tetrahydro-1H-indol-2-yl)methylene)indolin-2-one]
- inhibition at 0.5 µM (VEGFR2 kinase): 68%
- inhibition at 0.5 µM (c-Met kinase): 33.7%
- inhibition at 0.5 µM (PDGFR-β kinase): 32.8%

Structure (SMILES): O=C(O)CCc1c(/C=C2\C(=O)Nc3ccc(NS(=O)(=O)c4ccccc4)cc32)[nH]c2c1C(=O)CCC2 [DCB-70103, (Z)-5-phenylsulfonamido-3-((3-carboxyethyl-4-oxo-4,5,6,7-tetrahydro-1H-indol-2-yl)methylene)indolin-2-one]
- inhibition at 0.5 µM (VEGFR2 kinase): 88.3%
- inhibition at 0.5 µM (c-Met kinase): 37.9%
- inhibition at 0.5 µM (PDGFR-β kinase): 51%

Structure (SMILES): CC(=O)Nc1ccc2c(c1)/C(=C/c1[nH]c3c(c1CCC(=O)O)C(=O)CCC3)C(=O)N2 [DCB-70104, (Z)-5-acetamido-3-((3-carboxyethyl-4-oxo-4,5,6,7-tetrahydro-1H-indol-2-yl)methylene)indolin-2-one]
- inhibition at 0.5 µM (VEGFR2 kinase): 73.8%
- inhibition at 0.5 µM (c-Met kinase): 19.7%
- inhibition at 0.5 µM (PDGFR-β kinase): 27.2%

Structure (SMILES): O=C(O)CCc1c(/C=C2\C(=O)Nc3ccc(S(=O)(=O)N4CCc5ccccc54)cc32)[nH]c2c1C(=O)CCC2 [DCB-70106, (Z)-5-(indolin-1-ylsulfonyl)-3-((3-carboxyethyl-4-oxo-4,5,6,7-tetrahydro-1H-indol-2-yl)methylene)indolin-2-one]
- inhibition at 0.5 µM (VEGFR2 kinase): 46.4%
- inhibition at 0.5 µM (c-Met kinase): 59.6%
- inhibition at 0.5 µM (PDGFR-β kinase): 36.3%

Structure (SMILES): CN1CCN(S(=O)(=O)c2ccc3c(c2)/C(=C/c2[nH]c4c(c2CCC(=O)O)C(=O)CCC4)C(=O)N3)CC1 [DCB-70107, (Z)-5-(4-methylpiperazin-1-ylsunfonyl)-3-((3-carboxyethyl-4-oxo-4,5,6,7-tetrahydro-1H-indol-2-yl)methylene)indolin-2-one hydrochloride]
- inhibition at 0.5 µM (VEGFR2 kinase): 48.8%
- inhibition at 0.5 µM (c-Met kinase): 59.6%
- inhibition at 0.5 µM (PDGFR-β kinase): 8%

Structure (SMILES): CCOC(=O)CCc1c(/C=C2\C(=O)Nc3ccc(-c4ccc(F)cc4)cc32)[nH]c2c1C(=O)CCC2 [DCB-70108, (Z)-5-(4-fluorophenyl)-3-((3-(3-ethoxy-3-oxopropyl)-4-oxo-4,5,6,7-tetrahydro-1H-indol-2-yl)methylene)indolin-2-one]
- inhibition at 0.5 µM (VEGFR2 kinase): 14.1%
- inhibition at 0.5 µM (c-Met kinase): 30.1%
- inhibition at 0.5 µM (PDGFR-β kinase): 4%

Structure (SMILES): O=C(O)CCc1c(/C=C2\C(=O)Nc3ccc(-c4ccc(F)cc4)cc32)[nH]c2c1C(=O)CCC2 [DCB-70109, (Z)-5-(4-fluorophenyl)-3-((3-carboxyethyl-4-oxo-4,5,6,7-tetrahydro-1H-indol-2-yl)methylene)indolin-2-one]
- inhibition at 0.5 µM (VEGFR2 kinase): 58.6%
- inhibition at 0.5 µM (c-Met kinase): -10.8%
- inhibition at 0.5 µM (PDGFR-β kinase): 22.6%

Structure (SMILES): O=C(O)CCc1c(/C=C2\C(=O)Nc3ccc(S(=O)(=O)N4CCCCC4)cc32)[nH]c2c1C(=O)CCC2 [DCB-70114, (Z)-5-(piperidin-1-ylsulfonyl)-3-((3-carboxyethyl-4-oxo-4,5,6,7-tetrahydro-1H-indol-2-yl)methylene)indolin-2-one]
- inhibition at 0.5 µM (VEGFR2 kinase): 22.6%
- inhibition at 0.5 µM (c-Met kinase): 3.5%
- inhibition at 0.5 µM (PDGFR-β kinase): 5.6%
